From ChEMBL document CHEMBL1921790, “Synthesis and antimicrobial activity of brominated resorcinol dimers” (Bioorg Med Chem Lett, 2011)
Values after ≈ are worked out from the molar mass of the structure shown.

Key:
Escherichia coli = test: Antibacterial activity against Escherichia coli ATCC 25922 after 24 hrs by two fold serial dilution method; assay type: functional; details: ATCC 25922, 24 h
Staphylococcus aureus = test: Antibacterial activity against Staphylococcus aureus ATCC 6538p after 24 hrs by two fold serial dilution method; assay type: functional
Candida albicans = test: Antifungal activity against Candida albicans ATCC 10231 after 24 to 72 hrs by two fold serial dilution method; assay type: functional
Micrococcus luteus = test: Antibacterial activity against Micrococcus luteus IFC 12708 after 24 hrs by two fold serial dilution method; assay type: functional; details: IFC 12708, 24 h
[1] = tested on: Trichophyton mentagrophytes; test: Antifungal activity against Trichophyton mentagrophytes IFO 40996 after 48 to 72 hrs by two fold serial dilution method; assay type: functional
Salmonella typhimurium = test: Antibacterial activity against Salmonella Typhimurium ATCC 14028 after 24 hrs by two fold serial dilution method; assay type: functional, Salmonella enterica subsp. enterica serovar Typhimurium; details: Salmonella enterica, ATCC 14028, 24 h
Isocitrate lyase = Isocitrate lyase (Candida albicans, UniProt Q9P8Q7); test: Inhibition of Candida albicans isocitrate lyase after 30 mins
Aspergillus fumigatus = test: Antifungal activity against Aspergillus fumigatus HIC 6094 after 48 to 72 hrs by two fold serial dilution method; assay type: functional
Bacillus subtilis = test: Antibacterial activity against Bacillus subtilis ATCC 6633 after 24 hrs by two fold serial dilution method; assay type: functional; details: ATCC 6633, 24 h
Trichophyton rubrum = test: Antifungal activity against Trichophyton rubrum IFO 9185 after 48 to 72 hrs by two fold serial dilution method; assay type: functional
Proteus vulgaris = test: Antibacterial activity against Proteus vulgaris ATCC 3851 after 24 hrs by two fold serial dilution method; assay type: functional; details: ATCC 3851, 24 h

Chain of Isocitrate lyase (Q9P8Q7 whole entry): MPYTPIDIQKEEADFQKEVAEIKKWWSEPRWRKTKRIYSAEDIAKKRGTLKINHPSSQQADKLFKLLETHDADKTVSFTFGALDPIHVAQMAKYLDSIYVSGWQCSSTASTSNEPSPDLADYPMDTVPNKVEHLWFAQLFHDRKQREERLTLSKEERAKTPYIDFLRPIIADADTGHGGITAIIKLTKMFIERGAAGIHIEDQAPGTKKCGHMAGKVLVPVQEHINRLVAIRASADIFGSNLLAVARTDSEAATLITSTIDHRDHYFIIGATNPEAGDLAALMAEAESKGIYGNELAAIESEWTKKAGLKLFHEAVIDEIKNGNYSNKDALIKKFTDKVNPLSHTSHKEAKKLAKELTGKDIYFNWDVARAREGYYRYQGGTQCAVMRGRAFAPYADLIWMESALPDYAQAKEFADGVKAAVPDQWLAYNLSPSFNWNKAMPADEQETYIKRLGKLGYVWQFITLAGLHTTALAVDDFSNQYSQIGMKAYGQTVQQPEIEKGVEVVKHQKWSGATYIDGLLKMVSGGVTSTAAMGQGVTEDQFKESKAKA

MIC (Escherichia coli) [µg/mL]	MIC (Staphylococcus aureus) [µg/mL]	MIC (Candida albicans) [µg/mL]	MIC (Micrococcus luteus) [µg/mL]	MIC [1] [µg/mL]	MIC (Salmonella typhimurium) [µg/mL]	IC50 (Isocitrate lyase) [µM]	MIC (Aspergillus fumigatus) [µg/mL]	MIC (Bacillus subtilis) [µg/mL]	MIC (Trichophyton rubrum) [µg/mL]	MIC (Proteus vulgaris) [µg/mL]	SMILES
50 (≈ 109 µM)	3.12 (≈ 6.78 µM)	25 (≈ 54.3 µM)	1.56 (≈ 3.39 µM)	25 (≈ 54.3 µM)	3.12 (≈ 6.78 µM)	28	12.5 (≈ 27.2 µM)	1.56 (≈ 3.39 µM)	12.5 (≈ 27.2 µM)	1.56 (≈ 3.39 µM)	CCCCCC(c1cc(Br)c(O)cc1O)c1cc(Br)c(O)cc1O
> 100	0.78 (≈ 1.62 µM)	50 (≈ 104 µM)	0.78 (≈ 1.62 µM)	100 (≈ 207 µM)	1.56 (≈ 3.24 µM)	25.9	50 (≈ 104 µM)	0.78 (≈ 1.62 µM)	100 (≈ 207 µM)	0.78 (≈ 1.62 µM)	Oc1ccc(C(c2cc(Br)c(O)cc2O)c2cc(Br)c(O)cc2O)cc1
100 (≈ 187 µM)	6.25 (≈ 11.7 µM)	100 (≈ 187 µM)	1.56 (≈ 2.92 µM)	100 (≈ 187 µM)	6.25 (≈ 11.7 µM)	17.9	100 (≈ 187 µM)	1.56 (≈ 2.92 µM)	> 100	1.56 (≈ 2.92 µM)	Oc1cc(O)c(C(c2cc(Br)c(O)cc2O)c2c(Cl)cccc2Cl)cc1Br
> 100	3.12 (≈ 6.1 µM)	50 (≈ 97.8 µM)	1.56 (≈ 3.05 µM)	100 (≈ 196 µM)	3.12 (≈ 6.1 µM)	26.8	100 (≈ 196 µM)	1.56 (≈ 3.05 µM)	100 (≈ 196 µM)	1.56 (≈ 3.05 µM)	O=[N+]([O-])c1cccc(C(c2cc(Br)c(O)cc2O)c2cc(Br)c(O)cc2O)c1
> 100	25 (≈ 48.9 µM)	> 100	12.5 (≈ 24.5 µM)	> 100	25 (≈ 48.9 µM)	20.7	> 100	12.5 (≈ 24.5 µM)	> 100	25 (≈ 48.9 µM)	O=[N+]([O-])c1ccc(C(c2cc(Br)c(O)cc2O)c2cc(Br)c(O)cc2O)cc1
100 (≈ 262 µM)	6.25 (≈ 16.4 µM)	50 (≈ 131 µM)	3.12 (≈ 8.18 µM)	50 (≈ 131 µM)	3.12 (≈ 8.18 µM)	46.6	50 (≈ 131 µM)	3.12 (≈ 8.18 µM)	50 (≈ 131 µM)	3.12 (≈ 8.18 µM)	CCCCCC(c1ccc(O)cc1O)c1cc(Br)c(O)cc1O (configuration not stated)
> 100	6.25 (≈ 15.5 µM)	> 100	3.12 (≈ 7.74 µM)	> 100	6.25 (≈ 15.5 µM)	90.5	> 100	3.12 (≈ 7.74 µM)	> 100	3.12 (≈ 7.74 µM)	Oc1ccc(C(c2ccc(O)cc2O)c2cc(Br)c(O)cc2O)cc1 (configuration not stated)
> 100	12.5 (≈ 27.4 µM)	> 100	12.5 (≈ 27.4 µM)	> 100	12.5 (≈ 27.4 µM)	78.7	> 100	6.25 (≈ 13.7 µM)	> 100	12.5 (≈ 27.4 µM)	Oc1ccc(C(c2cc(Br)c(O)cc2O)c2c(Cl)cccc2Cl)c(O)c1 (configuration not stated)
> 100	12.5 (≈ 28.9 µM)	100 (≈ 231 µM)	12.5 (≈ 28.9 µM)	> 100	6.25 (≈ 14.5 µM)	69.9	> 100	6.25 (≈ 14.5 µM)	> 100	6.25 (≈ 14.5 µM)	O=[N+]([O-])c1cccc(C(c2ccc(O)cc2O)c2cc(Br)c(O)cc2O)c1 (configuration not stated)
> 100	100 (≈ 231 µM)	> 100	50 (≈ 116 µM)	> 100	100 (≈ 231 µM)	41.2	> 100	50 (≈ 116 µM)	> 100	100 (≈ 231 µM)	O=[N+]([O-])c1ccc(C(c2ccc(O)cc2O)c2cc(Br)c(O)cc2O)cc1 (configuration not stated)
100 (≈ 331 µM)	12.5 (≈ 41.3 µM)	> 100	12.5 (≈ 41.3 µM)	> 100	12.5 (≈ 41.3 µM)	167	> 100	6.25 (≈ 20.7 µM)	> 100	12.5 (≈ 41.3 µM)	CCCCCC(c1ccc(O)cc1O)c1ccc(O)cc1O

SMILES	MIC (Escherichia coli) [µg/mL]	MIC (Staphylococcus aureus) [µg/mL]	MIC (Candida albicans) [µg/mL]	MIC (Micrococcus luteus) [µg/mL]	MIC [1] [µg/mL]	MIC (Salmonella typhimurium) [µg/mL]	IC50 (Isocitrate lyase) [µM]	MIC (Aspergillus fumigatus) [µg/mL]	MIC (Bacillus subtilis) [µg/mL]	MIC (Trichophyton rubrum) [µg/mL]	MIC (Proteus vulgaris) [µg/mL]
O=C(O)CC[N+](=O)[O-]							6				
CC1(C)S[C@@H]2[C@H](NC(=O)[C@H](N)c3ccccc3)C(=O)N2[C@H]1C(=O)O [AMPICILLIN]	6.25 (≈ 17.9 µM)	0.39 (≈ 1.12 µM)	0.78 (≈ 2.23 µM)	1.56 (≈ 4.46 µM)	1.56 (≈ 4.46 µM)	0.78 (≈ 2.23 µM)		1.56 (≈ 4.46 µM)	0.39 (≈ 1.12 µM)	1.56 (≈ 4.46 µM)	0.78 (≈ 2.23 µM)
